How the values were obtained:
Format in all cases: physicochemical
[1] = Stability study of selected solid forms, XRPD after 7 days of storage
Excerpt: XRPD diffractograms were collected with a Bruker, D2 Phaser or Panalytical Empyrean X-ray diffractometer. Diffractograms can be read by one of skill in the art, for example, to determine if a chemical sample is the substantially the same, different, or represents a mixture of forms. When a diffractogram is “substantially in accordance” as another diffractogram, a person of skill in the art would regard the samples resulting in the two diffractograms as the same form or same mixture of forms, taking into account minor variations for instrumentation, conditions, and the like.
A stability study comparing amorphous freebase Compound I, Freebase Form II, 2-Napsylate Form I, Fumarate Form I, Succinate Form I, and Camsylate Form I was conducted. HPLC measurements were taken after 7 days of storage at the indicated conditions.

[2] = Stability study of selected solid forms, HPLC purity after 7 days of storage
[3] = Competitive slurry of 2-Napsylate Form I and Form VI at different water activities
Description: To determine the impact of water activity on 2-Napsylate Form VI and 2-Napsylate Form I, a series of competitive slurry experiments were carried out at different water activities in THF/water and ACN/water solvent systems at RT and 55° C. Suspensions of 2-Napsylate Form I at each condition were made and allowed to equilibrate for 2 h followed by addition of ˜5 mg of Form VI with stirring.

[4] = Stability of amorphous salt forms of Compound (I), HPLC purity loss on storage; conditions: 14 days at 40° C., 75% RH
Description: HPLC analysis was performed with an Agilent HPLC 1260 series instrument.
The stability of various amorphous salt forms of Compound (I) was also assessed. The salt forms, in general, were prepared by suspending Compound (I) in a suitable solvent at ambient temperature and adding the corresponding acid to the mixture. The mixtures were allowed to stir until a solution was formed, filtered to remove any trace solids, and the resulting filtrate lyophilized to access the salts as solids. Characterization by XRPD established that all salt forms were amorphous. […]

[5] = Form conversion of 2-Napsylate crystalline forms on vacuum drying or in slurry (XRPD); conditions: drying at 40° C. under vacuum (overnight)

Cc1cccnc1-c1ccc(-c2n[nH]c3ncc(-c4ccc5c(c4)CC[C@@H](N4C6COCC4C6)CC5)cc23)nc1 [Freebase Form II]
XRPD (solid form) ([1]; 7 days, 25° C.): Form II | XRPD (solid form) ([1]; 7 days, 40° C. / 75% RH): Form II | XRPD (solid form) ([1]; 7 days, 60° C.): Form I | XRPD (solid form) ([1]; T0): Form II | HPLC Purity (A %) ([2]; 7 days, 25° C.): 99.44 A % | HPLC Purity (A %) ([2]; 7 days, 40° C. / 75% RH): 99.36 A % | HPLC Purity (A %) ([2]; 7 days, 60° C.): 99.22 A % | Chemical and physical stability compared to the other forms tested ([2]; Example 6 stability study): better chemical and physical stability | HPLC Purity (A %) ([2]; T0): 100.0 A %

Cc1cccnc1-c1ccc(-c2n[nH]c3ncc(-c4ccc5c(c4)CC[C@@H](N4C6COCC4C6)CC5)cc23)nc1
2-Napsyalte Crystal Form ([3]; 55° C., H2O, 1 w): Gel Formation | 2-Napsyalte Crystal Form ([3]; 55° C., H2O, 2 d): Gel Formation | 2-Napsyalte Crystal Form ([3]; 55° C., THF, 1 w): Form I (majorly) | 2-Napsyalte Crystal Form ([3]; 55° C., THF, 2 d): Form VI (majorly) | 2-Napsyalte Crystal Form ([3]; 55° C., THF/H2O (aw = 0.2), 1 w): Form I | 2-Napsyalte Crystal Form ([3]; 55° C., THF/H2O (aw = 0.2), 2 d): Form I (majorly) | 2-Napsyalte Crystal Form ([3]; 55° C., THF/H2O (aw = 0.4), 1 w): Gel Formation | 2-Napsyalte Crystal Form ([3]; 55° C., THF/H2O (aw = 0.4), 2 d): Gel Formation | 2-Napsyalte Crystal Form ([3]; 55° C., THF/H2O (aw = 0.6), 1 w): Gel Formation | 2-Napsyalte Crystal Form ([3]; 55° C., THF/H2O (aw = 0.6), 2 d): Gel Formation | 2-Napsyalte Crystal Form ([3]; 55° C., THF/H2O (aw = 0.8), 1 w): Gel Formation | 2-Napsyalte Crystal Form ([3]; 55° C., THF/H2O (aw = 0.8), 2 d): Gel Formation | 2-Napsylate Crystal Form ([3]; RT, ACN, 1 d): Form I | 2-Napsylate Crystal Form ([3]; RT, ACN/H2O (aw = 0.2), 1 d): Form I | 2-Napsylate Crystal Form ([3]; RT, ACN/H2O (aw = 0.4), 1 d): Form I | 2-Napsylate Crystal Form ([3]; RT, ACN/H2O (aw = 0.6), 1 d): Form I | 2-Napsylate Crystal Form ([3]; RT, ACN/H2O (aw = 0.8), 1 d): Gel Formation | 2-Napsyalte Crystal Form ([3]; RT, H2O, 1 w): Form IX | 2-Napsylate Crystal Form ([3]; RT, H2O, 1 d (ACN series)): Form I | 2-Napsyalte Crystal Form ([3]; RT, H2O, 2 d): Form I | 2-Napsyalte Crystal Form ([3]; RT, THF, 1 w): Form I (majorly) | 2-Napsyalte Crystal Form ([3]; RT, THF, 2 d): Form VI (majorly) | 2-Napsyalte Crystal Form ([3]; RT, THF/H2O (aw = 0.2), 1 w): Form I (majorly) | 2-Napsyalte Crystal Form ([3]; RT, THF/H2O (aw = 0.2), 2 d): Form I (majorly) | 2-Napsyalte Crystal Form ([3]; RT, THF/H2O (aw = 0.4), 1 w): Gel Formation | 2-Napsyalte Crystal Form ([3]; RT, THF/H2O (aw = 0.4), 2 d): Gel Formation | 2-Napsyalte Crystal Form ([3]; RT, THF/H2O (aw = 0.6), 1 w): Gel Formation | 2-Napsyalte Crystal Form ([3]; RT, THF/H2O (aw = 0.6), 2 d): Gel Formation | 2-Napsyalte Crystal Form ([3]; RT, THF/H2O (aw = 0.8), 1 w): Gel Formation | 2-Napsyalte Crystal Form ([3]; RT, THF/H2O (aw = 0.8), 2 d): Gel Formation

Cc1cccnc1-c1ccc(-c2n[nH]c3ncc(-c4ccc5c(c4)CC[C@@H](N4C6COCC4C6)CC5)cc23)nc1 [Citrate]
HPLC Purity Loss on Day 14 (%) [4]: 14.2%

Cc1cccnc1-c1ccc(-c2n[nH]c3ncc(-c4ccc5c(c4)CC[C@@H](N4C6COCC4C6)CC5)cc23)nc1 [Form X]
Crystal form after drying [5]: amorphous after

Cc1cccnc1-c1ccc(-c2n[nH]c3ncc(-c4ccc5c(c4)CC[C@@H](N4C6COCC4C6)CC5)cc23)nc1 [Camsylate Form I]
XRPD (solid form) ([1]; 7 days, 2° C.): Form I | XRPD (solid form) ([1]; 7 days, 25° C.): Form I | XRPD (solid form) ([1]; 7 days, 40° C. / 75% RH): Decreased | XRPD (solid form) ([1]; T0): Form I | HPLC Purity (A %) ([2]; 7 days, 2° C.): 99.69 A % | HPLC Purity (A %) ([2]; 7 days, 25° C.): 99.68 A % | HPLC Purity (A %) ([2]; 7 days, 40° C. / 75% RH): 99.29 A % | HPLC Purity (A %) ([2]; T0): 99.69 A %

Cc1cccnc1-c1ccc(-c2n[nH]c3ncc(-c4ccc5c(c4)CC[C@@H](N4C6COCC4C6)CC5)cc23)nc1 [Form V]
Crystal form after drying [5]: Form VII after

From patent publication US20250230173A1, “SALT FORMS OF AN AXL INHIBITOR” (Arcus Biosciences, Inc., priority 2023, published 2025)
